Here are results for two compounds from patent US20230089605A1, “USE OF DOXYCYCLINE, RESVERATROL, IVERMECTIN, AND RELATED CHEMICALLY MODIFIED COMPOUNDS TO TREAT OR PREVENT VIRAL INFECTIONS” (Ardestat Biologics, LLC, priority 2021, published 2023).

The assay deals with T1, MMP9 (Homo sapiens, UniProt P14780).
T1 construct: purchased Abcam ab139449
As to the kind of experiment: MMP9 inhibitor screening assay kit (Fluorometric), Abcam. In kind it is biochemical. The conditions noted are these: result given in words only. The method, then:
Doxycycline, resveratrol, colchicine, and ivermectin were assessed at the indicated concentrations using the MMP9 Inhibitor Screening Assay Kit (abcam), according to the manufacturer's instructions.
Inhibition of MMP9 was determined using the MMP9 inhibitor screening assay kit (Fluorometric) from Abcam (Cat#ab139449) according to the manufacturer's instructions. Unquenching of a fluorogenic peptide by MMP9 was monitored for 10 minutes in the presence or absence of inhibitory compounds, using a fluorescent microplate reader (Ex/Em=328/420). Reaction velocity (V) in RFU/minute was used to determine the % of remaining enzymatic activity, relative to untreated control, according to the following equation: (Vinhibitor/Vcontrol)×100 (FIG. 2).

T1 sequence (P14780 107-444 limits assumed): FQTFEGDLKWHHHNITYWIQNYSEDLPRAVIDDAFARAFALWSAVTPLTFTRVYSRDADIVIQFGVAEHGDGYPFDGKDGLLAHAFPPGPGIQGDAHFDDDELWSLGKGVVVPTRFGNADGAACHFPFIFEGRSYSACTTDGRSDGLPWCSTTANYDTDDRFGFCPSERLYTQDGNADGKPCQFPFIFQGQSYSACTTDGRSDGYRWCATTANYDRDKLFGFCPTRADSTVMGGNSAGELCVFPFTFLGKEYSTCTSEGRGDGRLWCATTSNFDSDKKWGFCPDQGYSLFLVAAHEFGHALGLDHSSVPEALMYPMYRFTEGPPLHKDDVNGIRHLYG

Consider `Oc1ccc(C=Cc2cc(O)cc(O)c2)cc1` [resveratrol], for which the “inhibition of MMP activity (% of remaining enzymatic activity relative to untreated control)” value (fluorogenic peptide unquenching monitored 10 minutes, FIG. 2) is on record as “inhibited MMP activity but to a much more modest extent compared to doxycycline”.
With ivermectin, the “interference with the MMP-inhibiting effects of doxycycline and resveratrol” value is “has not been shown to interfere with these MMP-inhibiting effects”.
